Molecules are shown by their SMILES.

The target in this assay is T1, Edg-1/S1P1 receptor (Homo sapiens, UniProt P21453).
T1 construct: expressed in transfected cells; host or cells: human osteogenic sarcoma U2OS cells: Edg-1 Transfluor U2OS WT Clone #37 (assay I), Edg-1 Transfluor U2OS Clone #3 (assay II)
The assay can be described thus: In vitro cell based receptor activation assay - Transfluor assay (assay I or II; beta-arrestin GFP relocalization after S1P stimulation). The note with it: for inhibition at 3.7 µM: at 3.70 μM (titrated from top concentration 100 μM). The source says: The following assays can be used to measure the effects of the compounds of the present invention as S1P1/Edg1 inhibitors.
I. In Vitro Cell Based Receptor Activation Assay-Transfluor Assay
This cell-based assay was designed to assess the ability of small molecule antagonists to inhibit activation of the GPCR S1P1 in the presence of its cognate ligand S1P. The assay used technology initially developed by Norak Biosciences (Xsira Pharmaceutical) and presently owned by Molecular Devices. A human osteogenic sarcoma (U2OS) cell line overexpressing the Edg-1/S1P1) receptor as well as a beta-arrestin/green fluorescent protein (GFP) construct hereafter termed Edg-1 Transfluor U2OS WT Clone #37 was employed.
Using a high content screening approach (Cellomics Arrayscan), receptor activity was measured by assessment of the relocalization of beta-arrestin GFP in response to stimulation of Edg-1 by SIP. Specifically, Edg-1 Transfluor U2OS WT Clone #37 cells were plated at a density of 6250 cells in 40 μL medium per well in 384 well plastic bottomed microtiter plates (BD Falcon) and incubated overnight at 37° C./5% CO2. Prior to screening, compounds were dissolved in 100% dimethyl sulfoxide (DMSO) to a final stock concentration of 10 mM. Compounds were then serially diluted at 30× final concentration in Edg-1 Transfluor cell growth medium containing […] using the Tecan Genesis instrument. These 30× plates were then diluted to 6× final concentration with Edg-1 Transfluor growth medium just prior to dosing. Cells were then dosed with 10 μL per well of 6× compound dilutions or 6% DMSO and pre-incubated for 15 minutes at room temperature. Cell plates were dosed with 10 μL per well 6× S1P Edg-1 Transfluor growth medium, then incubated for 45 minutes at 37° C./5% CO2. Final concentration in the well of DMSO was 1%, compound was IX (3-fold, 9 point IC50 dilutions starting at 100 μM final concentration), and either 375 nM or […] SIP ligand. Cell plates were then fixed by adding 50 μL per well of 5% formaldehyde in 1× Dulbecco's phosphate buffered saline (DPBS) directly and incubating for 30 minutes at room temperature in darkness. Fixative was removed and replaced with 50 μL per well of 1×DPBS, after which cells were stained with 10 μg/mL final concentration of Hoechst 33342 (Molecular Probes) for 15 minutes at room temperature in darkness. Stain was then removed from the plates and replaced with 50 μL per well of 1×DPBS using the BioTek ExL405 plate washer. Plates were then sealed and analysed on the Cellomics Arrayscan using the GPCR signalling algorithm. EC50 values were then calculated using IDBS ActivityBase software.
II. In Vitro Cell Based Receptor Activation Assay-Transfluor Assay
This cell-based assay was designed to assess the ability of small molecule antagonists to inhibit activation of the GPCR S1P1 in the presence of its cognate ligand S1P. The assay used technology initially developed by Norak Biosciences (Xsira Pharmaceutical) and presently owned by Molecular Devices (MDS Analytical Technologies). A human osteogenic sarcoma (U2OS) cell line overexpressing the Edg-1/S1P1) receptor as well as a beta-arrestin/green fluorescent protein (GFP) construct hereafter termed Edg-1 Transfluor U2OS Clone #3 was employed.
Using a high content screening approach (Molecular Devices Image Express), receptor activity was measured by assessment of the relocalization of beta-aiTestin GFP in response to stimulation of Edg-1 by S1P. Specifically, Edg-1 Transfluor U2OS Clone #3 cells were plated at a density of 6250 cells in 44 μL medium per well in 384 well plastic bottomed microtiter plates (BD Falcon) and incubated overnight at 37° C./5% CO2. Prior to screening, compounds were dissolved in 100% dimethyl sulfoxide (DMSO) to a final stock concentration of 10 mM. Compounds were then serially diluted at 10× final concentration in Edg-1 Transfluor cell growth medium containing 6% DMSO using the BioMek instrument. […]

The mark [1] stands for this setting: at 3.50 μM (titrated from top concentration 10 μM).

T1 sequence (P21453 whole entry): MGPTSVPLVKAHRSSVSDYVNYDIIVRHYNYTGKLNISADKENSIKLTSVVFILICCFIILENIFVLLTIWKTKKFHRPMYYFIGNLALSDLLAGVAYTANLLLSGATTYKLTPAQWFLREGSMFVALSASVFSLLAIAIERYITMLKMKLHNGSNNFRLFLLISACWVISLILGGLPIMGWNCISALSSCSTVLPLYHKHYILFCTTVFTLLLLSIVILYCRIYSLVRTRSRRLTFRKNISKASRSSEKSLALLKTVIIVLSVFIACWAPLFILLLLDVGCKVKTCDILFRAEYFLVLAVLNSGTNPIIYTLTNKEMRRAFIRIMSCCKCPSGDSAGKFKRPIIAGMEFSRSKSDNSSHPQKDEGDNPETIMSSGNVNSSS

One may read the inhibition as the change of the read-out against control, counted positive when it falls. A high value points to a response far below the control. As for `CCn1c(C(C)(C)NS(=O)(=O)c2ccc(C#N)nc2)nc2ncccc21` [Example 177, 6-cyano-N-(2-(1-ethyl-1H-imidazo[4,5-b]pyridin-2-yl)propan-2-yl)pyridine-3-sulfonamide], the inhibition at 3.5 µM under setting [1] was found to be 3.55%.

`CCn1c([C@@H](C)NS(=O)(=O)c2cccc(F)c2)nc2ccc(C(F)(F)F)cc21` [Example 120, N-{(1R)-1-[1-Ethyl-6-(trifluoromethyl)-1H-benzimidazol-2-yl]ethyl}-3-fluorobenzenesulfonamide]: under setting [1], the inhibition at 3.5 µM turned out to be 90.9%.

Compound `CCn1c(C(C)(C)NS(=O)(=O)c2ccc(C#N)nc2)nc2cnc(C(F)(F)F)cc21` [Example 155, 6-Cyano-N-(2-(1-ethyl-6-(trifluoromethyl)-1H-imidazo[4,5-c]pyridin-2-yl)propan-2-yl)pyridine-3-sulfonamide] had an inhibition at 3.5 µM under setting [1] of 78.9%. The same measure, in the same setting: in the case of `CCn1c([C@@H](C)NS(=O)(=O)c2cnc(Cl)c(Cl)c2)nc2ccc(C(F)(F)F)cc21` [Example 48, 5,6-dichloro-N-(1-(1-ethyl-6-(trifluoromethyl)-1H-benzo[d]imidazol-2-yl)ethyl)pyridine-3-sulfonamide] it was 95.4%. On to `CCn1c([C@@H](C)NS(=O)(=O)c2ccc(Cl)cc2)nc2cc(C)c(Cl)cc21` [Example 59, 4-Chloro-N-[(1R)-1-(6-chloro-1-ethyl-5-methyl-1H-benzimidazol-2-yl)ethyl]benzenesulfonamide], for which the inhibition at 3.7 µM is 78.2%. For `CCn1c([C@@H](C)NS(=O)(=O)c2ccc(C#N)nc2)nc2cnc(C(F)(F)F)cc21` [Example 148, (R)-6-Cyano-N-(1-(1-ethyl-6-(trifluoromethyl)-1H-imidazo[4,5-c]pyridin-2-yl)ethyl)pyridine-3-sulfonamide], under setting [1], 3.5 µM produced 93% inhibition. With `CCn1c([C@@H](C)NS(=O)(=O)c2ccc(Cl)cc2)nc2cccc(C)c21` [Example 66, 4-Chloro-N-[(1R)-1-(1-ethyl-7-methyl-1H-benzimidazol-2-yl)ethyl]benzenesulfonamide], the inhibition at 3.7 µM came to 94.6%.

The compound `CCCn1cc(S(=O)(=O)N[C@H](C)c2nc3ccc(C(F)(F)F)cc3n2CC)c(C)n1` [Example 53, N-{(1R)-1-[1-Ethyl-6-(trifluoromethyl)-1H-benzimidazol-2-yl]ethyl}-3-methyl-1-propyl-1H-pyrazole-4-sulfonamide] yielded an inhibition at 3.7 µM of 84.5%. Same read-out and setting: the figure for `CCn1c([C@@H](C)NS(=O)(=O)c2ccc(Cl)cc2)nc2cccc(Cl)c21` [Example 86, (R)-4-Chloro-N-[1-(7-chloro-1-ethyl-1H-benzoimidazol-2-yl)ethyl]-benzenesulfonamide] is 51.7%. Same read-out and setting: the figure for `CCn1c([C@@H](C)NS(=O)(=O)c2ccc(Cl)cc2)nc2cc(Br)c(C(F)(F)F)cc21` [Example 93, N-{(1R)-1-[5-Bromo-1-ethyl-6-(trifluoromethyl)-1H-benzimidazol-2-yl]ethyl}-4-chlorobenzenesulfonamide] is 62.3%; for `CCn1c([C@@H](C)NS(=O)(=O)c2ccc(Cl)cc2)nc2ccc(SC)cc21` (stereo in doubt) [Example 79, 4-Chloro-N-{1-[1-ethyl-6-(methylthio)-1H-benzimidazol-2-yl]ethyl}benzenesulfonamide] it is 94.9%. `CCn1c([C@@H](C)NS(=O)(=O)c2ccc(F)cc2)nc2ncc(C(F)(F)F)cc21` [Example 179, N-{(1R)-1-[1-Ethyl-6-(trifluoromethyl)-1H-imidazo[4,5-b]pyridin-2-yl]ethyl}-4-fluorobenzene sulfonamide] returned an inhibition at 3.5 µM under setting [1] of 90.5%. Under setting [1], `CCn1c([C@@H](C)NS(=O)(=O)c2ccc(OC)nc2)nc2ccc(C(F)(F)F)cc21` [Example 109, (R)-N-(1-(1-Ethyl-6-(trifluoromethyl)-1H-benzo[d]imidazol-2-yl)ethyl)-6-methoxypyridine-3-sulfonamide] returned an inhibition at 3.5 µM of 95.6%. Regarding `CCn1c([C@@H](C)NS(=O)(=O)c2ccc(NC(=O)N(C)C)cc2)nc2ccc(C(F)(F)F)cc21` [Example 113, (R)-4-(3,3-Dimethylureido)-N-(1-(1-ethyl-6-(trifluoromethyl)-1H-benzo[d]imidazol-2-yl)ethyl)benzenesulfonamide], the “% inhibition” value under setting [1] is “[drawing 125] (R)-4-(3,3-Dimethylureido)- N-(1-(1-ethyl-6- (trifluoromethyl)-1H- benzo[d]imidazol-2-yl)ethyl)benzenesulfonamide (Inactive at 3.50 μM)”. `CCn1c([C@@H](C)NS(=O)(=O)c2ccc(Cl)cc2)nc2cnc(Cl)cc21` [Example 97, 4-chloro-N-[(1R)-1-(6-chloro-1-ethyl-1H-imidazo[4,5-c]pyridin-2-yl)ethyl]benzenesulfonamide]: testing at 3.7 µM gave an inhibition of 88.9%. Turning to `CCn1c([C@@H](C)NS(=O)(=O)c2ccc(-c3ccccc3)cc2)nc2ccc(C(F)(F)F)cc21` [Example 159, (R)-N-(1-(1-Ethyl-6-(trifluoromethyl)-1H-benzo[d]imidazol-2-yl)ethyl)biphenyl-4-sulfonamide], the inhibition at 3.5 µM under setting [1] is 19.8%. The same measure, in the same setting: the figure for `CCn1c([C@@H](C)NS(=O)(=O)c2ccc(F)cc2)nc2ccc(C(F)(F)F)cc21` [Example 25, N-{(1R)-1-[1-Ethyl-6-(trifluoromethyl)-1H-benzimidazol-2-yl]ethyl}-4-fluorobenzenesulfonamide] is 90%. `CCn1c([C@@H](C)NS(=O)(=O)c2cnc(Cl)c(Br)c2)nc2ccc(C(F)(F)F)cc21` [Example 49, 5-Bromo-6-chloro-N-{(1R)-1-[1-ethyl-6-(trifluoromethyl)-1H-benzimidazol-2-yl]ethyl}pyridine-3-sulfonamide] registered an inhibition at 3.7 µM of 92.1%. For the compound `CCn1c([C@@H](C)NS(=O)(=O)c2ccc(Cl)cc2)nc2ccc(CN(C)C)cc21` [Example 74, 4-Chloro-N-((1R)-1-{6-[(dimethylamino)methyl]-1-ethyl-1H-benzimidazol-2-yl}ethyl)benzenesulfonamide], testing at 3.7 µM gave an inhibition of 30.4%. Under setting [1], `CCn1c([C@@H](C)NS(=O)(=O)c2ccc(C(N)=O)nc2)nc2cnc(C3CC3)cc21` [Example 174, 5-[1-(6-Cyclopropyl-1-ethyl-1H-imidazo[4,5-c]pyridin-2-yl)-ethylsulfamoyl]-pyridine-2-carboxylic acid amide] gave an inhibition at 3.5 µM of 87.8%. Compound `CC(NS(=O)(=O)c1ccc(Cl)cc1)c1nc2ccccc2n1CC(F)(F)F` (stereo not drawn) [Example 23, 4-Chloro-N-{1-[1-(2,2,2-trifluoro-ethyl)-1H-benzimidazol-2-yl]-ethyl}-benzenesulfonamide] came in with an inhibition at 3.7 µM of 88.1%. In turn, `CCn1c([C@@H](C)NS(=O)(=O)C2=Cc3ccccc3CC2)nc2ccc(C(F)(F)F)cc21` [Example 119, M-{(1R)-1-[1-Ethyl-6-(trifluoromethyl)-1H-benzimidazol-2-yl]ethyl}-3,4-diyhydronaphthalene-2-sulfonamide] displayed an inhibition at 3.3 µM (at 3.30 μM (run with this as top concentration)) of 71.7%.

As to `CCn1c([C@@H](C)NS(=O)(=O)c2ccc(Cl)cc2)nc2cccc(OC)c21` [Example 11, 4-Chloro-N-[(1R)-1-(1-ethyl-7-methoxy-1H-benzimidazol-2-yl)ethyl]benzene-sulfonamide], the inhibition at 3.7 µM is 82%. In the case of `CCn1c([C@@H](C)NS(=O)(=O)c2ccc(C(N)=O)nc2)nc2cnc(C(F)(F)F)cc21` [Example 149, (R)-5-(N-(1-(1-Ethyl-6-(trifluoromethyl)-1H-imidazo[4,5-c]pyridin-2-yl)ethyl)sulfamoyl)picolinamide], the inhibition at 3.5 µM under setting [1] turned out to be 93.3%.

The values above are taken from patent US20100029643A1 (ASTRAZENECA AB, priority 2006, published 2010).
